The results in this text go back to article PMC8869097, “Benzothiazole Derivatives as Multifunctional Antioxidant Agents for Skin Damage: Structure–Activity Relationship of a Scaffold Bearing a Five-Membered Ring System” (Antioxidants, 2022).

In brackets after ≈: the same amount, converted by molar mass. Some results are limits rather than exact numbers.

The nature of data set [1]: Ferric Reducing Antioxidant Power assay (FRAP). Particulars: 593 nm. The method, then: The FRAP assay is a widely used method based on a colorimetric reaction linked to a redox and on the use of antioxidants as reducing agents.
The test evaluates the capacity of a sample to reduce ferric to ferrous ions in the presence of TPTZ (2,4,6-tripyridyl-s-triazine). The reaction mixture consists of 0.1 M acetate buffer pH 3.6, 10 mmol/L TPTZ in 40 mmol/HCl, and 20 mmol/L ferric chloride in the ratio 10/1/1 (v:v:v) as described by Benzie et al.. A total of 1.9 mL of reagent was added to 0.1 mL of suitably diluted sample or solvent. The absorbance values were measured using the UV-VIS spectrophotometer at 593 nm and expressed as µmol TE/g compound.

A further data set deals with Microsporum gypseum. Nature of the data set: Antidermatophyte activity, plaque growth inhibition. The data set is classed as cell-based, Microsporum gypseum CBS 130,948. Particulars: Nannizzia gypsea; 100 μg/mL, SDA; read-out: % Inhibition Growth M. gypseum. Here is the method: (§1) The dermatophytes used in this study were Epidermophyton floccosum var. floccosum (Netherlands) CBS 358.93 strain, Trichophyton tonsurans (Netherlands) CBS 483.76 strain, Trichophyton mentagrophytes (Netherlands) CBS 160.66 strain, Microsporum canis (Iran) CBS 131,110 strain, and Microsporum gypseum (Iran) CBS 130,948 strain. All dermatophytes were maintained at 4 °C as agar slants on SDA. Candida albicans (ATCC 10231) was maintained at 4 °C on SDA plate.
(§2) The in vitro antifungal activity against the five selected dermatophytes was evaluated, as previously described, using the plaque growth inhibition method. All compounds were evaluated at the final concentration of 100 µg/mL. The percentages of growth inhibition according to Equation (5) were calculated as the average of three different experiments. I = [(C − T)/C] × 100%,(5) where I is the percentage value of growth inhibition, C is the measure of the diameter of the control circular mycelial inoculum (mm) and T is the extended diameter of the treated mycelial inoculum (mm).
(§3) All synthesized benzothiazole derivatives were evaluated to evaluate their in vitro antifungal activity against the five pathogenic dermatophytes that cause the most common dermatomycoses: Microsporum gypseum, Microsporum canis, Trichophyton mentagrophytes, Trichophyton tonsurans and Epidermophyton floccosum. All compounds were tested at a concentration of 100 µg/mL in DMSO, to evaluate the ability to inhibit the growth of dermatophyte cultures in Sabouraud Dextrose Agar (SDA). Briefly, room temperature incubation was performed and dermatophyte inhibition assessed by measuring the colony diameter at each disc for 7 days. The results are shown in Table 3 and were determined as the average of three different experiments.

A further data set relates to Trichophyton tonsurans. Described as above. Particulars: 100 μg/mL, SDA, read-out: % Inhibition Growth T. tonsurans. The data set is classed as cell-based, Trichophyton tonsurans CBS 483.76. The method, then:
as §1, §2, §3

The subject of another data set is Epidermophyton floccosum. The data set is described as above. Format: cell-based, Epidermophyton floccosum var. floccosum CBS 358.93. The settings on record: 100 μg/mL, SDA, read-out: % Inhibition Growth E. floccosum. The method, then: as §1, §2, §3
The next data set has as its system Microsporum canis. The data set is described as above. The data set is classed as cell-based, Microsporum canis CBS 131,110. Particulars: 100 μg/mL, SDA, read-out: % Inhibition Growth M. canis. The method, then:
as §1, §2, §3

The nature of another data set: In vitro DPPH test. The settings on record: compounds at 1 mg/mL, 30 min, 517 nm. Here is the method:
The assay performed is adapted from Wang et al.. Briefly, 0.750 mL of 1 mg/mL solutions of the tested compounds was treated with 1.5 mL of DPPH solution in MeOH. The absorbance of samples, stored for 30 min at room temperature in the dark, was read on the spectrophotometer at 517 nm. The values obtained were converted into a radical inhibition percentage (%) by Equation (1). DPPH radical scavenging capacity (%) = [1 − A1/A0] × 100%(1) where A0 and A1 were, respectively, the absorbance without and with the sample. Subsequently, the compound with the best profile was tested in order to determine the IC50 (µg/mL). A linear regression plot is performed to calculate the actual sample concentration required to eliminate 50% of the DPPH free radicals.
The antioxidant activity of a molecule is very important and, if present, it can be synergistic with the SPF described above in reducing the damage that is ROS-induced by UV rays. For this reason, the synthesized compounds were assayed in vitro to assess their antioxidant profiles by means of the DPPH and FRAP assays (Table 2). Regarding the ability to scavenge the stable radical 2,2-diphenyl-1-picrylhydrazyl (DPPH), it was decided to investigate first the compounds synthesized at the same concentration (1 mg/mL) and evaluate the percentage of inhibition of the radical DPPH.

For data set [2], the system named is Trichophyton mentagrophytes. Nature of the data set: Antidermatophyte activity, plaque growth inhibition. Format: cell-based, Trichophyton mentagrophytes CBS 160.66. The settings on record: 100 μg/mL, SDA, read-out: % Inhibition Growth T. mentagrophytes. The method, then:
as §1, §2, §3

Data set [3] is described as follows: UV spectra of compounds in solution (filtering parameters). The data set is classed as physicochemical. The method, then: The evaluation of the sun protection parameters has been carried out using a UV-Vis spectrophotometer. The absorbance of the solutions of the test compounds dissolved in the different solvents (DMSO, MeOH, DMSO–H2O 4:6, DMSO–H2O 6:4, HE) at a concentration of 0.0015 (±0.000005)% was recorded in the range 290–400 nm using a 1 cm quartz cell at 1 nm intervals. It was decided to evaluate the profile of the compounds in the Peg-7 Glyceryl Cocoate (HE) oil, which is the emollient of choice to solubilize the compounds in a formulation suitable for in vivo analysis. Wavelength absorbance is in relationship with transmittance (T (λ)) from Equation (2) A (λ) = […](2) where T (λ) is the fraction of incident irradiance that is transmitted through a sample.
The three parameters were determined, respectively, in DMSO and in methanol in order to perform a comparison (Table S1).
Since DMSO is a solvent with characteristics very close to those of an oil, the analysis was also carried out in solutions that mimic the possible conditions of a formulation. For this reason, the 4:6 and 6:4 proportions of DMSO–H2O were chosen to evaluate the choice of an oil-in-water or water-in-oil emulsion.

Data set [4] concerns Candida albicans (ATCC 10231). As to the kind of experiment: Anti-Candida albicans activity, broth microdilution MIC. Format: cell-based. The settings on record: Candida albicans, ATCC10231; 24 h of incubation. The method, then: as §1
The suspension of Candida albicans consists of the dispersion of an aliquot in 5 mL of sterilized water. The compounds and fluconazole, used as a positive control, were solubilized in DMSO (12.80 mg/mL) as stock solutions. Minimum inhibitory concentration (MIC) was performed by the broth microdilution method according to the approved standard M27-A3, 2008 [NCCLS] of the Clinical and Laboratory Standards Institute/National Committee for Clinical Laboratory Standards (CLSI/NCCLS), as described previously.
Candida is a strain of fungi known to transmit infections to different parts of the human body, including the skin [43], which is why the synthesized compounds have also been tested against Candida Albicans (ATCC 10231). For each of them the minimum inhibitory concentration (MIC) was determined by the broth microdilution method using RPMI 1640 + MOPS as culture medium. […] Fluconazole was used as a positive control drug. […] Similarly to the results observed on dermatophytes, therefore, the unsubstituted compounds in position 6 of benzimidazole gave activity on yeasts, except for compound 8a.

Regarding `O=C(O)c1ccc2nc(-c3cccs3)sc2c1` [Compound 10b, 2-(Thiophen-2-Yl)benzothiazole-6-Carboxylic Acid], the melting point – broadly, the temperature of the solid-liquid transition – was over 250 °C. In data set [1], this compound registered an FRAP of 133.91 ± 8.13 μmolTE/g. The inhibition (commonly the change of the read-out against control, counted positive when it falls) at 100 µg/mL in the data set on Microsporum gypseum amounted to 18.5 ± 1.23%. The inhibition at 100 µg/mL with Trichophyton tonsurans was 65.5 ± 1.58%. The inhibition at 100 µg/mL in the data set on Epidermophyton floccosum was found to be 28.3 ± 1.04%. Also, the inhibition at 100 µg/mL in the data set on Microsporum canis was found to be 27.6 ± 1.47%. Further, in the data set “In vitro DPPH test”, the “DPPH (% Inhibition)” value was found to be 46.04 ± 0.07%. For the same compound, the inhibition at 100 µg/mL in data set [2] stood at 14.2 ± 1.01%. In [3] (DMSO), the “A (absorbance)” value came out at 1.160, the “ε (molar extinction coefficient)” value is 17818.74 and the λmax is on record as 340.00 nm. In addition, in data set [3] (MeOH), the “A (absorbance)” value came out at 1.140, the “ε (molar extinction coefficient)” value amounted to 21268.66 and the λmax came out at 334.57 nm.
With `OC(Cn1cncn1)(Cn1cncn1)c1ccc(F)cc1F` [Fluconazole, reference compound], the inhibition at 100 µg/mL in the data set with Microsporum gypseum worked out at 18.2 ± 0.9%; in the data set on Trichophyton tonsurans, 18.7 ± 0.62%; with Epidermophyton floccosum, 0.12 ± 0.004%; in the data set on Microsporum canis, 30.1 ± 0.4%; in data set [2], 3.75 ± 0.24%. The MIC (in general, the lowest concentration that inhibits growth of the organism) in data set [4] turned out to be 0.5 µg/mL (≈ 1.63 µM).
